# Where “and” joins values, the source holds several entries; their conditions need not be identical. Identical values can stand only once. Like-named read-outs stand apart in the source and are kept apart here.
# Key:
# P. falciparum Dd2-2D4 = experiment: P. falciparum asexual blood stage (ABS) growth assay, SYBR Green, 72 h, wild-type parasites; type: cell-based, Plasmodium falciparum; settings: Plasmodium falciparum, DD2; SI Fig 16b; values on -log scale; read-out: ABS - Dd2-2D4 (converted)
# PfcProRS = biological target: T1, PfcProRS (Plasmodium falciparum, UniProt Q8I5R7); type: binding; settings: for dose-response signal (normalized), SI Fig 8: single replicates
# T1 construct: made in house; host or cells: E. coli SoluBL-21
# HsProRS = HsProRS (Homo sapiens, UniProt P07814); experiment: TR-FRET ligand displacement assay with tracer MAT379 (CoraFluor-1-Halo and anti-His6 antibody formats); type: binding; design: made in house; host or cells: E. coli SoluBL-21; settings: for TR-FRET dose-response, normalized signal (SI Fig 11): individual replicates
# Sequence of HsProRS (P07814 996-1512): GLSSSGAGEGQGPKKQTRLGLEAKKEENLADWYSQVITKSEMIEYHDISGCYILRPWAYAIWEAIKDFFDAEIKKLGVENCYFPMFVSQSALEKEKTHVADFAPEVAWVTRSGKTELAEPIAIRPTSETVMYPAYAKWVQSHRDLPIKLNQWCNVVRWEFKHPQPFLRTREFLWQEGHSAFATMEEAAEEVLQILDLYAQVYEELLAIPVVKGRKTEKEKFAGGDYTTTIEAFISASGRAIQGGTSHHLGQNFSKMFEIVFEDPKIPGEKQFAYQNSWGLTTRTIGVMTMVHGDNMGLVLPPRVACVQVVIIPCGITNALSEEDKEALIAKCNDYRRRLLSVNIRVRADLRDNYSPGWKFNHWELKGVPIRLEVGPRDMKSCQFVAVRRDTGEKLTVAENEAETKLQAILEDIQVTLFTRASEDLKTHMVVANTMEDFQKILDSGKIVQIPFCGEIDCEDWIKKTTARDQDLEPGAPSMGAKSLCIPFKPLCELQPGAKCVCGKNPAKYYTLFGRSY
# T1 sequence (Q8I5R7 249-746): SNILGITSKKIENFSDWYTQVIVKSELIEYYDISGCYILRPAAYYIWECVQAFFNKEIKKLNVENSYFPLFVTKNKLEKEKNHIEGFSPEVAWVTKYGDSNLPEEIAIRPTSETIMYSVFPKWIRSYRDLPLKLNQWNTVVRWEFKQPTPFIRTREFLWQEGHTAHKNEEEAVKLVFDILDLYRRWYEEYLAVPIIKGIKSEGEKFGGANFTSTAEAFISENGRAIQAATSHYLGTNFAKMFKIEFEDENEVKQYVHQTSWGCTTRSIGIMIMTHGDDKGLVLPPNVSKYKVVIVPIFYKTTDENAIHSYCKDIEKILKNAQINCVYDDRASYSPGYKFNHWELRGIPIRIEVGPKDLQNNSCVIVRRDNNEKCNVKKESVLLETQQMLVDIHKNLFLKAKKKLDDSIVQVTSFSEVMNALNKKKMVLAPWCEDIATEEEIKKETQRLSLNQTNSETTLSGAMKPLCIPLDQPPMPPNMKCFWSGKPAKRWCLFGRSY
smiles,measurement,setting,value
NC1(C(=O)Nc2nccnc2C(=O)NC2Cc3ccccc3C2)CCCCC1 [compound 17],EC50,P. falciparum Dd2-2D4,5.79 µM
same,"dose-response signal (normalized), SI Fig 8",PfcProRS; Log[inhibitor] (M) -5.000,-2.16E-02 and 3.35E-02 and 3.85E-02
same,"dose-response signal (normalized), SI Fig 8",PfcProRS; Log[inhibitor] (M) -5.301,9.18E-02 and 6.95E-02 and 1.07E-01
same,"dose-response signal (normalized), SI Fig 8",PfcProRS; Log[inhibitor] (M) -5.601,1.19E-01 and 1.25E-01 and 1.05E-01
same,"dose-response signal (normalized), SI Fig 8",PfcProRS; Log[inhibitor] (M) -5.904,2.12E-01 and 2.21E-01 and 2.19E-01
same,"dose-response signal (normalized), SI Fig 8",PfcProRS; Log[inhibitor] (M) -6.208,4.81E-01 and 4.00E-01 and 5.13E-01
same,"dose-response signal (normalized), SI Fig 8",PfcProRS; Log[inhibitor] (M) -6.509,7.01E-01 and 7.64E-01 and 7.83E-01
same,"dose-response signal (normalized), SI Fig 8",PfcProRS; Log[inhibitor] (M) -6.796,9.36E-01 and 8.53E-01 and 9.43E-01
same,"dose-response signal (normalized), SI Fig 8",PfcProRS; Log[inhibitor] (M) -7.108,1.01E+00 and 9.81E-01 and 1.06E+00
same,"dose-response signal (normalized), SI Fig 8",PfcProRS; Log[inhibitor] (M) -7.409,1.04E+00 and 9.85E-01 and 1.08E+00
same,"dose-response signal (normalized), SI Fig 8",PfcProRS; Log[inhibitor] (M) -7.710,9.36E-01 and 1.05E+00 and 9.73E-01
same,"dose-response signal (normalized), SI Fig 8",PfcProRS; Log[inhibitor] (M) -8.000,9.16E-01 and 9.94E-01 and 1.09E+00
same,"dose-response signal (normalized), SI Fig 8",PfcProRS; Log[inhibitor] (M) -8.301,1.01E+00 and 9.14E-01 and 9.61E-01
same,"dose-response signal (normalized), SI Fig 8",PfcProRS; Log[inhibitor] (M) -8.602,9.67E-01 and 1.05E+00 and 9.29E-01
same,"dose-response signal (normalized), SI Fig 8",PfcProRS; Log[inhibitor] (M) -9.000,9.54E-01 and 9.96E-01 and 9.84E-01
same,"dose-response signal (normalized), SI Fig 8",PfcProRS; Log[inhibitor] (M) -9.301,9.59E-01 and 9.29E-01 and 9.60E-01
same,PfcProRS -- best Kd,"PfcProRS; SI Fig 16a, values on -log scale",6.883
same,Kd,"HsProRS; HsProRS (KD [nM]) mean, no added proline/ATP (-)",4430 nM
same,Kd,"HsProRS; HsProRS - best Kd, SI Fig 16a, values on -log scale",25.5 nM
same,"normalized TR-FRET ligand displacement signal, dose-response replicates (SI Fig 6)",HsProRS; Log[inhibitor] (M) -5.000,2.29E-01 and 2.88E-01 and 2.34E-01
same,"TR-FRET dose-response, normalized signal (SI Fig 11)",HsProRS; Log[inhibitor] (M) -5.000,3.10E-01 and 3.50E-01 and 2.83E-01
same,"normalized TR-FRET ligand displacement signal, dose-response replicates (SI Fig 6)",HsProRS; Log[inhibitor] (M) -5.301,4.79E-01 and 4.33E-01 and 5.59E-01
same,"TR-FRET dose-response, normalized signal (SI Fig 11)",HsProRS; Log[inhibitor] (M) -5.301,5.37E-01 (2×) and 4.61E-01
same,"normalized TR-FRET ligand displacement signal, dose-response replicates (SI Fig 6)",HsProRS; Log[inhibitor] (M) -5.601,7.03E-01 and 7.28E-01 and 7.31E-01
same,"TR-FRET dose-response, normalized signal (SI Fig 11)",HsProRS; Log[inhibitor] (M) -5.601,6.81E-01 and 6.32E-01 and 7.28E-01
same,"normalized TR-FRET ligand displacement signal, dose-response replicates (SI Fig 6)",HsProRS; Log[inhibitor] (M) -5.904,9.55E-01 and 9.39E-01 and 8.52E-01
same,"TR-FRET dose-response, normalized signal (SI Fig 11)",HsProRS; Log[inhibitor] (M) -5.904,7.93E-01 and 8.32E-01 and 8.75E-01
same,"normalized TR-FRET ligand displacement signal, dose-response replicates (SI Fig 6)",HsProRS; Log[inhibitor] (M) -6.208,9.44E-01 and 9.23E-01 and 8.86E-01
same,"TR-FRET dose-response, normalized signal (SI Fig 11)",HsProRS; Log[inhibitor] (M) -6.208,9.35E-01 and 8.64E-01 and 9.27E-01
same,"normalized TR-FRET ligand displacement signal, dose-response replicates (SI Fig 6)",HsProRS; Log[inhibitor] (M) -6.509,9.47E-01 and 9.84E-01 and 9.68E-01
same,"TR-FRET dose-response, normalized signal (SI Fig 11)",HsProRS; Log[inhibitor] (M) -6.509,8.93E-01 and 9.27E-01 and 9.36E-01
same,"normalized TR-FRET ligand displacement signal, dose-response replicates (SI Fig 6)",HsProRS; Log[inhibitor] (M) -6.796,9.18E-01 and 9.88E-01 and 9.43E-01
same,"TR-FRET dose-response, normalized signal (SI Fig 11)",HsProRS; Log[inhibitor] (M) -6.796,9.97E-01 and 9.65E-01 and 9.84E-01
same,"normalized TR-FRET ligand displacement signal, dose-response replicates (SI Fig 6)",HsProRS; Log[inhibitor] (M) -7.108,9.90E-01 and 9.75E-01 and 9.07E-01
same,"TR-FRET dose-response, normalized signal (SI Fig 11)",HsProRS; Log[inhibitor] (M) -7.108,9.67E-01 and 9.70E-01 and 9.86E-01
same,"normalized TR-FRET ligand displacement signal, dose-response replicates (SI Fig 6)",HsProRS; Log[inhibitor] (M) -7.409,1.03E+00 and 1.00E+00 and 1.02E+00
same,"TR-FRET dose-response, normalized signal (SI Fig 11)",HsProRS; Log[inhibitor] (M) -7.409,9.20E-01 and 9.49E-01 and 9.94E-01
same,"normalized TR-FRET ligand displacement signal, dose-response replicates (SI Fig 6)",HsProRS; Log[inhibitor] (M) -7.710,1.02E+00 and 9.03E-01 and 1.03E+00
same,"TR-FRET dose-response, normalized signal (SI Fig 11)",HsProRS; Log[inhibitor] (M) -7.710,9.99E-01 and 9.64E-01 and 1.05E+00
same,"normalized TR-FRET ligand displacement signal, dose-response replicates (SI Fig 6)",HsProRS; Log[inhibitor] (M) -8.000,1.01E+00 and 9.27E-01 and 9.75E-01
same,"TR-FRET dose-response, normalized signal (SI Fig 11)",HsProRS; Log[inhibitor] (M) -8.000,1.01E+00 and 9.57E-01 and 9.53E-01
same,"normalized TR-FRET ligand displacement signal, dose-response replicates (SI Fig 6)",HsProRS; Log[inhibitor] (M) -8.301,1.01E+00 and 1.00E+00 and 1.05E+00
same,"TR-FRET dose-response, normalized signal (SI Fig 11)",HsProRS; Log[inhibitor] (M) -8.301,9.70E-01 and 9.81E-01 and 1.01E+00
same,"normalized TR-FRET ligand displacement signal, dose-response replicates (SI Fig 6)",HsProRS; Log[inhibitor] (M) -8.602,9.94E-01 and 1.05E+00 and 1.03E+00
same,"TR-FRET dose-response, normalized signal (SI Fig 11)",HsProRS; Log[inhibitor] (M) -8.602,9.48E-01 and 9.63E-01 and 9.29E-01
same,"normalized TR-FRET ligand displacement signal, dose-response replicates (SI Fig 6)",HsProRS; Log[inhibitor] (M) -9.000,9.41E-01 and 1.01E+00 and 9.67E-01
same,"TR-FRET dose-response, normalized signal (SI Fig 11)",HsProRS; Log[inhibitor] (M) -9.000,9.46E-01 and 9.80E-01 and 9.64E-01
same,"normalized TR-FRET ligand displacement signal, dose-response replicates (SI Fig 6)",HsProRS; Log[inhibitor] (M) -9.301,1.02E+00 and 9.62E-01 and 8.95E-01
same,"TR-FRET dose-response, normalized signal (SI Fig 11)",HsProRS; Log[inhibitor] (M) -9.301,9.77E-01 (2×) and 9.15E-01

# Reference: publication PMC9403976, “Elucidating the path to Plasmodium prolyl-tRNA synthetase inhibitors that overcome halofuginone resistance” (Nature Communications, 2022)
